Here are results for one compound from patent US20140213647A1, “COMPOUND USEFUL FOR PREVENTING OR TREATING IRRITABLE BOWEL SYNDROME AND COMPOSITION INCLUDING SAME” (SK CHEMICALS CO., LTD., priority 2011, published 2014).

By IC50 is commonly meant the midpoint of a concentration-inhibition curve. A low value points to greater potency in that assay.

The target in experiment [1] is T1, human-derived NK2 receptor (Homo sapiens, UniProt P21452).
T1 construct: expressed in transfected cells
T1 sequence (P21452 1-398): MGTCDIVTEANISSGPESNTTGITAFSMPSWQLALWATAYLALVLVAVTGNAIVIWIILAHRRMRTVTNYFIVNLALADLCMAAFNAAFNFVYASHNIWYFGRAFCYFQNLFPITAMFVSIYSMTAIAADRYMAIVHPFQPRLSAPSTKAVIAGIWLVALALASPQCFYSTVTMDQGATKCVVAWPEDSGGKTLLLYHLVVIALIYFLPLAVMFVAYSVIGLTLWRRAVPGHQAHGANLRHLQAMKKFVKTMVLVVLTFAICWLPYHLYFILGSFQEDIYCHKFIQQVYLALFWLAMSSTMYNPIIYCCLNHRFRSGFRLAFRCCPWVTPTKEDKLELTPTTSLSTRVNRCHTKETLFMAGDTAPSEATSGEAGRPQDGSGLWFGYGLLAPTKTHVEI
As to the kind of experiment: Inhibiting activity against NK2 receptor ([3H]SR-48968 competitive binding). The note with it: cell membranes expressing human-derived NK2 receptor, ligand [3H]SR-48968, 25° C. 90 minutes. Here is the method:
Each of 100 μl of a modified HEPES buffer was added to each well, to which the compound (50, 500, 1500, 5000, 15000 μM) dissolved in DMSO and a positive control, MEN-10,376 (0.5, 2.5, 5, 25, 50 μM) were added in an amount of 5 μl, respectively. Thereto, each of 50 μl of a NK2 receptor ligand, [3H]SR-48968 was added, and each of 100 μl of a modified HEPES buffer having cell membranes in which a human-derived NK2 receptor is expressed was added. After incubating with stirring (200 rpm) at 25° C. for 90 minutes, the resultants were filtered and washed 3 times.
The number of cell membranes bound with an isotope ([^3H]SR-48968) was calculated by means of […] measurement. At this time, as a test material is strongly bound with the receptor, the ligand [^3H]SR-48968 is not bound and measured values decrease (competitive bonding). The value for the well added with only the ligand was represented as “0% inhibition”, and the well having no ligand, as “100% inhibition’, and the inhibition rate was measured depending on the amount of drug concentration.

The target of experiment [2] is T2, human-derived motilin receptor (Homo sapiens, UniProt O43193).
T2 construct: expressed in transfected cells
T2 sequence (O43193 whole entry): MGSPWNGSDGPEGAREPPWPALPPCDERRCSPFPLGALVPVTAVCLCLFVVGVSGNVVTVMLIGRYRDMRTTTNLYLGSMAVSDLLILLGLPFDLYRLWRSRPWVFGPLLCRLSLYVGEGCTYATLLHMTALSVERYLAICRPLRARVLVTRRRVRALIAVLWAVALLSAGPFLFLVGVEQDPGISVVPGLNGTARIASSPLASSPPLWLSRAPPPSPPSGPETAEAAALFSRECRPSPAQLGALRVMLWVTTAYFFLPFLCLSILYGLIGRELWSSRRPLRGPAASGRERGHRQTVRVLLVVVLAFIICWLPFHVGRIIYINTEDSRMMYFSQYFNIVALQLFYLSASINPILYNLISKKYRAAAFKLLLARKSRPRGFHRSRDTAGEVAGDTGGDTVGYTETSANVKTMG
As to the kind of experiment: Inhibiting activity against motilin receptor (radioligand binding). The following applies: cell membranes expressing human-derived motilin receptor, 25° C. 150 minutes. Here is the method: Each of 100 μl of a modified Tris-HCl buffer was added to each well, to which the compound (50, 500, 1500, 5000, 15000 μM) of the present invention dissolved in DMSO and a positive control, motilin (2.5, 5, 25, 50, 250 μM) were added in an amount of 5 μl, respectively. Thereto, each of 50 μl of a motilin receptor ligand, […] was added, and each of 100 μl of a modified Tris-HCl buffer having cell membranes in which a human-derived motilin receptor is expressed was added. After incubating at 25° C. for 150 minutes, the resultants were filtered and washed 3 times. The number of cell membranes bound with an isotope was calculated by means of β-ray measurement.

Experiment [3] addresses T3, human-derived melanocortin MC1 receptor (Homo sapiens, UniProt Q01726).
T3 construct: expressed in transfected cells
As to the kind of experiment: Inhibiting activity against melanocortin MC1 receptor ([125I]NDP-a-MSH binding). The following applies: cell membranes expressing human-derived melanocortin MC1 receptor, ligand [125I]NDP-a-MSH, 37° C. 120 minutes. How it is done: (§1) Each of 100 μl of a modified HEPES-KOH buffer was added to each well, to which the compound (50, 500, 1500, 5000, 15000 μM) of the present invention dissolved in DMSO and a positive control, NDP-a-MSH (0.25, 0.5, 2.5, 5, 25 nM) were added in an amount of 5 μl, respectively. Thereto, each of 50 μl of a melanocortin MC1 receptor ligand, [^125l] NDP-a-MSH was added, and each of 100 μl of a modified Tris-HCl buffer having cell membranes in which a human-derived melanocortin MC1 receptor is expressed was added. After incubating at 37° C. for 120 minutes, the resultants were filtered and washed 3 times. The number of cell membranes bound with an isotope was calculated by means of β-ray measurement.

Experiment [4] deals with T4, human-derived cannabinoid CB2 receptor (Homo sapiens, UniProt P34972).
T4 construct: expressed in transfected cells
T4 sequence (P34972 whole entry): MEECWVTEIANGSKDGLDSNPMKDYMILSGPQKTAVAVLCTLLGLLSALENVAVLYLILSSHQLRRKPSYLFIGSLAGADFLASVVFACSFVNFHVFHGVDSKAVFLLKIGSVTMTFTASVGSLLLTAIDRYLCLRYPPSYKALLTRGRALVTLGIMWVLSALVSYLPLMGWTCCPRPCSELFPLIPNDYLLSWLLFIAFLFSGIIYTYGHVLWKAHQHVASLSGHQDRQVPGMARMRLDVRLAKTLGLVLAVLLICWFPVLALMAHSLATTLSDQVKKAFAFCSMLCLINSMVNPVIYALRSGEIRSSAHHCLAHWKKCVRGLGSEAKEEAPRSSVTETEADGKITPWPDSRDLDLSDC
As to the kind of experiment: Inhibiting activity against cannabinoid CB2 receptor ([3H]WIN-55,212-2 binding). The note with it: cell membranes expressing human-derived cannabinoid CB2 receptor, ligand [3H]WIN-55,212-2, 37° C. 90 minutes. Here is the method: as §1, with “HEPES” for “HEPES-KOH”, “R(+)-WIN-55, 212-2 (0.05, 0.25,” for “NDP-a-MSH (0.25,”, “5” for “5, 25”, “cannabinoid CB2” for “melanocortin MC1”, “[^3H]WIN-55, 212-2” for “[^125l] NDP-a-MSH”, “90” for “120”

In experiment [5] the target is T5, human-derived guanylate cyclase (Homo sapiens, UniProt Q02153).
T5 construct: made in house; host or cells: Sf9 insect cells (lysate used)
T5 sequence (Q02153 1-619): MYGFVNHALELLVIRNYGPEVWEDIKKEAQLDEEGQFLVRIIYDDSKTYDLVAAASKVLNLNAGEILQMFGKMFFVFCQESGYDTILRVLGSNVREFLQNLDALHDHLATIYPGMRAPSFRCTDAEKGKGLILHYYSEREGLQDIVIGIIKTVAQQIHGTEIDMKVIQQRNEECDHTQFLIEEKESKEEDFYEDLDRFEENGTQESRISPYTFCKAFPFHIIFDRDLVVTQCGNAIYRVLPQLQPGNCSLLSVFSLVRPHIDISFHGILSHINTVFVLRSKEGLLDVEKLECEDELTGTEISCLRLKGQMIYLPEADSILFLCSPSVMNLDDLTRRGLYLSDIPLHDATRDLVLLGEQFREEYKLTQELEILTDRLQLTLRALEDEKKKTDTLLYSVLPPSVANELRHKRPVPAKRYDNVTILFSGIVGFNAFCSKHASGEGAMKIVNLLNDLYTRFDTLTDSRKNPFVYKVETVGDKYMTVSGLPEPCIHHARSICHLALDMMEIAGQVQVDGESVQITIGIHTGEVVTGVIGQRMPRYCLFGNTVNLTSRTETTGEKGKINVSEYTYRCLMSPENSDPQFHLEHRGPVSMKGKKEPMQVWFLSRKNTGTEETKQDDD
T5 sequence (Q02108 1-690 partner): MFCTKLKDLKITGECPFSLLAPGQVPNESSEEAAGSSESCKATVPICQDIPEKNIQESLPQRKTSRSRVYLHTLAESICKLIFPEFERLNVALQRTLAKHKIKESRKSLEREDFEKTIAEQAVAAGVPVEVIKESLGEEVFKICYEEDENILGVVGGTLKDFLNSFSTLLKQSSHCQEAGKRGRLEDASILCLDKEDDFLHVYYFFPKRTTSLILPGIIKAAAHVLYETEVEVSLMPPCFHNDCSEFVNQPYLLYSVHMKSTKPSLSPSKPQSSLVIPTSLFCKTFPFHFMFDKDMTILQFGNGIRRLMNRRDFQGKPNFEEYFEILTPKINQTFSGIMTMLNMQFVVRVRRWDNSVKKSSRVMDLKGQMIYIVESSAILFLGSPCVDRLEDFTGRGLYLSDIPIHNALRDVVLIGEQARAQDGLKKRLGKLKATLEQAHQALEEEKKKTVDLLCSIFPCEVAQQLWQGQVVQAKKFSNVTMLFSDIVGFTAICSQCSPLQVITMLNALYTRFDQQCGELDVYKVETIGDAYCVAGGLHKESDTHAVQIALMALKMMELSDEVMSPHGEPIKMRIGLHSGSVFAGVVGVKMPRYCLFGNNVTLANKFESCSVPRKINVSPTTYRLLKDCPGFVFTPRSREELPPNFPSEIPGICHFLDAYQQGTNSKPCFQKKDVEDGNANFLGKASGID
As to the kind of experiment: Activity against guanylate cyclase (cGMP production, EIA). The class given is biochemical. The following applies: Sf9 lysate with human-derived guanylate cyclase, antagonistic activity vs 30 μM sodium nitroprusside, cGMP by EIA. How it is done: Plasmid in which a human-derived guanylate cyclase is expressed was transfected to Sf9 insect cells, followed by proliferation and then lysis. The compound (1, 10, 30, 100, 300 μM) of the present invention dissolved in DMSO and a positive control, ODQ (1H-[1,2,4]oxadiazolo[4,3-a]quinoxalin-1-one, 0.5, 0.1, 0.05, 0.01, 0.005 μM) were added to each well, to which guanylate cyclase (the lysed solution) which is mixed in a modified Tris-HCl buffer was added until its final concentration became to 0.013 μg/ml. After incubating at 37° C. for 20 minutes, 1N HCl was added to end the reaction.
After removing the guanylate cyclase, an amount of cGMP produced from the reaction was subject to quantitative measurement using an EIA kit. The amount of cGMP increases as the guanylate cyclase converting GTP to cGMP is activated. The activation of the guanylate cyclase was calculated based on the assumption that the result of sodium nitroprusside (30 μM), an agonist of the guanylate cyclase was 100%. The antagonistic activity against the guanylate cyclase was calculated based on the assumption that the result when treated only with 30 μM of sodium nitroprusside was 100% compared to when treated with both sodium nitroprusside and a drug.

The subject of experiment [6] is visceral hypersensitivity in colitis-induced rats. As to the kind of experiment: Suppressing effect of visceral pain in CRD (colorectal distension) model. Format: in vivo, Sprague-Dawley male rats. The following applies: CRD test about 1 hour after dosing. How it is done:
To evaluate the suppressing effect of the separated (6E,12E)-3-hydroxytetradeca-6,12-dien-8,10-diyn-1-yl acetate on the visceral hypersensitivity, a Colorectal Distension (CRD) test that has been often used in the evaluation of drugs for IBS was conducted as follows (see J H. La et al., World J. Gastroenterol. Dec., 9(12): p 2791-2795, 2003).
250 to 300 g of Sprague-Dawley male rats (Charles River) were used for the CRD test. Two rats per one cage were reared in a room of 25° C., humidity 50%, and day-night 12:12 hours of cycle. Rats were freely provided with drink water and food, and were adapted to the room condition for 5 days, followed by inducing colitis. […]
A 2 cm-long rubber balloon was inserted into the rectum of each rat, and was filled with 37° C-warmed water in stages, from 0.1 to 1.0 ml. The appearing pain reactions of rats were recorded. The specific behaviors of CRD test animals were represented with AWR (abdominal withdrawal reflex), which was indirectly and quantitatively analyzed by AWR scores given on each behavior, and the AWR scores were used for identifying the abdominal pain reaction. […]
The presence of visceral hypersensitivity was checked in CRD rats 7 days after inducing colitis. […] Student's t-test (p<0.01 (**) or p<0.001 (***)) was used for statistical approach, and significance relative to the vehicle-administered group was detected. […]

T3 sequence (Q01726 whole entry): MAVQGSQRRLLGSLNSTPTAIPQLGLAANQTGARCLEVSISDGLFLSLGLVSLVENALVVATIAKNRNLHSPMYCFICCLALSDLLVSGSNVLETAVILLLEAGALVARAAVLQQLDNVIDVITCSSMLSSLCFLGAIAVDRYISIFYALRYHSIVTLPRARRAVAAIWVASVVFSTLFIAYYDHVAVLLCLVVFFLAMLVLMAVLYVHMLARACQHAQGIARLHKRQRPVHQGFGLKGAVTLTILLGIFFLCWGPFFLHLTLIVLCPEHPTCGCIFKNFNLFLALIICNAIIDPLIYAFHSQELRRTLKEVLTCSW

Turning to `C/C=C/C#CC#C/C=C/CCC(O)CCOC(C)=O` (stereo not shown) [(6E,12E)-3-hydroxytetradeca-6,12-dien-8,10-diyn-1-yl acetate], the half-maximal inhibitory concentration (IC50) in experiment [1] came out at 30.6 µM; in experiment [2], 29.1 µM; in experiment [3], 133 µM; in experiment [4] it was 45 µM; in experiment [5] it was 18.9 µM. Further, the “suppressing effect against visceral hypersensitivity relative to the vehicle group (AWR score / AUC, FIG. 2)” value in experiment [6] (100 mg/kg orally, Student's t-test) is listed as “significant suppressing effect against visceral hypersensitivity”. Also, the “suppressing effect against visceral pain (AWR score / AUC, FIG. 2)” value in experiment [6] (10, 30 and 100 mg/kg orally) is on record as “suppressing effect against visceral pain occurred in visceral hypersensitivity as its concentration increased”.
